Read-outs that look alike come from different tables or passages of the source.
Assays:
[1] = n-octanol/water, cited from earlier work
[2] = tested on: lipase AY 30; experiment: Effect of the solvent on lipase AY 30 catalyzed deacylation of SOP; format: biochemical, Candida cylindracea; settings: for ShexaP (4.2 min) / SheptaP's (8.9 min) / SheptaP's (9.4 min) / SheptaP's ([…]): lipase AY 30, 24 hrs; for ShexaP (4.2 min): HPLC peak 4.2 min; for SheptaP's (8.9 min): HPLC peak 8.9 min; for SheptaP's (9.4 min): HPLC peak 9.4 min; for SheptaP's ([…]): HPLC peak […]; for SOA: lipase AY 30, solvent as labelled, 200 mM butanol, 24 hrs, peak 21.4 min; as to SheptaP's ([…]): HPLC peak 8.2 min
Procedure: Identical SOP deacylations were performed with lipase AY 30 or protease type XXIII in numerous anhydrous organic solvents, as shown in Tables 12 and 13.
Solvent screening for SOP deacylation. A scintillation vial was charged successively with 100 mg of lipase AY 30 or protease type XXIII as described and 1.0 ml of 20 mM sucrose octapropionate (SOP) and 200mM butanol dissolved in an organic solvent. Following a 5 sec sonication, the vial was incubated in a controlled-temperature shaker at 45° C. and 300 RPM for 24 hrs. A 200 μl aliquot of the reaction mixture was withdrawn and centrifuged. The supernatant was collected and evaporated under a stream of N2. The residue was reconstituted in 200 μl of acetonitrile and 10 μl of this solution was analyzed by HPLC.

[3] = tested on: alcalase deposited on Hyflo Super Cell; experiment: Solvent effect on alcalase deposited on Hyflo Super Cell catalyzed deacetylation of SOA; format: biochemical, Bacillus licheniformis; settings: immobilized alcalase, 4 hour incubation; for SheptaA: total of 1'-OH and 6'-OH heptaacetates
Procedure: (§1) Alcalase and lipase AY 30 were deposited on Hyflo Super Cell and used as catalysts for SOA deacetylation reactions in several anhydrous solvents.
(§2) Enzyme immobilization. The pH of a solution of 900 mg of buffered alcalase in 18 ml of water was adjusted to 9.0 with dilute NaOH. Hyflo super cell (6 g) was added and the slurry thoroughly mixed. […] Lipase AY 30 was immobilized in the same manner except that the protein solution was adjusted to pH 7.0 with sodium phosphate.
Enzyme and Solvent Screening for SOA Deacetylation. A scintillation vial was charged successively with 100 mg of powdered enzyme as received or prepared as described and 1.0 ml of 20 mM sucrose octaacetate (SOA) dissolved in an organic solvent. […] A 200 μl aliquot of the reaction mixture was withdrawn and centrifuged. The supernatant was collected and evaporated under a stream of N2. The residue was reconstituted in 200 μl of acetonitrile and 10 μl of this solution was analyzed by HPLC.

[4] = tested on: lipase AY 30; experiment: Effect of the solvent on lipase AY 30 SOA deacetylation; format: biochemical, Candida cylindracea; settings: lipase AY 30, solvent as labelled, 24 hrs
Procedure: (§3) Identical enzyme catalyzed SOA deacetylations were run in numerous anhydrous solvents. After 24 hrs incubation an aliquot was analyzed by HPLC.
(§4) Enzyme and Solvent Screening for SOA Deacetylation. A scintillation vial was charged successively with 100 mg of powdered enzyme as received or prepared as described and 1.0 ml of 20 mM sucrose octaacetate (SOA) dissolved in an organic solvent. Following a 5 sec sonication, the vial was incubated in a controlled-temperature shaker at 45° C. and 300 RPM for 24 hrs. A 200 μl aliquot of the reaction mixture was withdrawn and centrifuged. The supernatant was collected and evaporated under a stream of N2. The residue was reconstituted in 200 μl of acetonitrile and 10 μl of this solution was analyzed by HPLC.

[5] = tested on: lipase AY 30 deposited on Hyflo Super Cell; experiment: Solvent effect on lipase AY 30 deposited on Hyflo Super Cell catalyzed deacetylation of SOA; format: biochemical, Candida cylindracea; settings: immobilized lipase AY 30, 24 hrs
Procedure: as §1, §2, §4

[6] = molecular target: T1, alcalase (Bacillus licheniformis, UniProt P00780); experiment: Solvent effect on alcalase catalyzed deacetylation of SOA; format: biochemical; settings: 24 hrs; for SheptaA: total of 1'-OH and 6'-OH heptaacetates; for SOA / ShexaA: solvent as labelled
T1 construct: purchased Novo Nordisk (gift)
T1 sequence (P00780 106-379): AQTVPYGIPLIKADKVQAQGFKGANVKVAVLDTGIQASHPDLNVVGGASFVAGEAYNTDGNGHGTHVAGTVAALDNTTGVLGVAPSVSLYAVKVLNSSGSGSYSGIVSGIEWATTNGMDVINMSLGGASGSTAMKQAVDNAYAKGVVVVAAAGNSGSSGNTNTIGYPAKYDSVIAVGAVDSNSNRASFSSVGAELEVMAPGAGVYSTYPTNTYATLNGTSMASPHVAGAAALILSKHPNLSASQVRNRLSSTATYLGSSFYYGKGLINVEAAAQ
Procedure: as §3
Enzyme Precipitation. Alcalase was prepared by adding 37.5 ml cold acetone (-20° C.) to 25 ml of alcalase solution as supplied by Novo. The aqueous acetone was decanted and the residue dissolved in 25 ml of pH 9.0 glycine--NaOH buffer. The pH of this solution was adjusted to 9.0 with a few drops of dilute NaOH solution. Cold acetone (37.5 ml at -20° C.) was added to the buffered alcalase solution and the precipitate collected by filtration on a medium porosity glass funnel and dried overnight at 2 millitorr. The resulting pellet was ground to a fine powder and stored at 4° C. over saturated aqueous potassium carbonate (RH: 43%) for 24 hrs.
as §4

[7] = tested on: proleather; experiment: Solvent effect on proleather catalyzed deacetylation of SOA; format: biochemical, Bacillus subtilis; settings: 24 hrs; for SheptaA: total of 1'-OH and 6'-OH heptaacetates; for SOA / ShexaA: solvent as labelled
Procedure: as §3
(§5) The pH of commercial powdered enzymes was adjusted in the following way: The enzyme (3 g) was dissolved in 25 ml of an appropriate buffer and the pH adjusted with dilute NaOH or citric/phosphoric acid solution. Cold acetone (37.5 ml at -20° C.) was added and the precipitate collected on a medium porosity glass funnel and dried overnight at 2 millitorr. The protein pellet was ground to a fine powder and equilibrated at 4° C. over saturated aqueous potassium carbonate (RH: 43%) for 24 hrs.
as §4

[8] = tested on: lipase AP 12; experiment: Solvent effect on lipase AP 12 catalyzed deacetylation of SOA; format: biochemical, Aspergillus niger; settings: lipase AP 12, solvent as labelled, 24 hrs
Procedure: as §3, §5, §4

Row | SMILES | log P ([1]; from Laane et al.) | ShexaP (4.2 min) [2] | SheptaP's (8.9 min) [2] | SheptaP's (9.4 min) [2] | SheptaP's ([…]) [2] | SOA [2] | SOA [3] | ShexaA [3] | SheptaA [3] | SOA [4] | SheptaA [4] | ShexaA [4] | SOA [5] | SheptaA [5] | SheptaA [6] | SOA [6] | ShexaA [6] | SheptaA [7] | ShexaA [7] | also measured
1 | COC(C)(C)C [t-butyl methyl ether] | 1.3 | 0.8% | 0.3% | 5.9% | 4.3% | 88.7% | 97.3% | 0% | 2.7% | 61.6% | 28.8% | 9.6% | 96.0% | 4.0% | 6.8% | 92.6% | 0.6% | 24.4% | 3.2% | SOA [7]: 72.4%
2 | C1CCCCC1 [cyclohexane] |  | 2.8% | 0.4% | 5.2% | 5.6% | 86% |  |  |  |  |  |  |  |  |  |  |  |  |  | 
3 | CCCCCOCCCCC [dipentyl ether] | 3.9 |  |  |  |  |  |  |  |  |  |  |  |  |  |  |  |  |  |  | 
4 | CCCCCCCO [heptanol] | 2.5 | 0% | 0% | 0.7% | 1.4% | 97.9% |  |  |  | 93.4% | 6.0% | 0.6% |  |  |  |  |  |  |  | 
5 | C1CCOC1 [THF, tetrahydrofuran] |  | 0.3% | 0% | 0.1% | 1.6% | 98.0% | 97.3% | 0% | 2.7% | 98.7% | 1.3% | 0% | 98. % | 2.0% | 2.0% | 98.0% | 0% | 2.6% | 0% | SOA [8]: 98.4%; SheptaA [8]: 1.6%; ShexaA [8]: 0%; SOA [7]: 97.4%
6 | CCOC(C)(C)C [t-butyl ethyl ether] | 1.9 |  |  |  |  |  |  |  |  | 40.8% | 38.1% | 21.1% |  |  |  |  |  | 2.8% | 0% | 
7 | CCCCCCCCO [octanol] |  | 0% | 0% | 1.1% | 1.8% | 97.1% |  |  |  |  |  |  |  |  |  |  |  |  |  | log P [1]: 3.0
8 | O=C1CCCCC1 [cyclohexanone] | 0.96 | 0% | 0% | 0.3% | 0.9% | 98.8% |  |  |  | 97.5% | 2.5% | 0% |  |  |  |  |  |  |  | 
9 | CCCCC(=O)CC [3-heptanone] | 1.8 | 0% | 0.8% | 2.9% | 3.3% | 93.0% |  |  |  | 85.1% | 14.9% |  |  |  |  |  |  |  |  | 
10 | c1ccccc1 [benzene] |  |  |  |  |  |  | 97.9% | 0% | 2.1% | 97.9% | 1.7% | 0.4% | 97.9% | 2.1% | 6.7% | 93.3% | 0% | 13.9% | 1.4% | SOA [8]: 96.6%; SheptaA [8]: 3.4%; ShexaA [8]: 0%; SOA [7]: 84.8%
11 | CC(=O)OC(C)(C)C [t-butyl acetate] | 1.7 |  |  |  |  |  | 98.2% | 0% | 1.8% |  |  |  |  |  |  |  |  |  |  | 
12 | ClC(Cl)Cl [chloroform] |  |  |  |  |  |  |  |  |  | 86.7% | 11.6% | 1.7% |  |  |  |  |  |  |  | 
13 | CCC(C)(C)OC [t-amyl methyl ether] | 1.9 |  |  |  |  |  |  |  |  | 45% | 37.1% | 17.9% |  |  |  |  |  |  |  | 
14 | CCCCCCCC [octane] | 5.0 | 7.7% | 0.5% | 2.9% | 8.9% | 80.0% |  |  |  |  |  |  |  |  |  |  |  |  |  | 
15 | CCCCOC(C)=O [n-butyl acetate] | 1.7 | 0% | 0% | 0.7% | 1.4% | 97.9% |  |  |  | 95.2% | 4.6% | 0.4% | 97.6% | 2.4% | 2.4% | 97.6% | 0% | 16.5% | 2.2% | SOA [8]: 97.6%; SheptaA [8]: 2.4%; ShexaA [8]: 0%; SOA [7]: 81.3%
16 | CCCCOCC [butyl ethyl ether] | 1.9 |  |  |  |  |  | 97.8% | 0% | 2.2% | 73.9% | 21.4% | 4.7% | 96.0% | 4.0% | 16.9% | 81.4% | 1.7% |  |  | SOA [8]: 81.6%; SheptaA [8]: 16.3%; ShexaA [8]: 2.1%
17 | Cc1ccccc1 [toluene] |  | 0.2% | 0% | 1.2% | 1.3% | 97.3% | 97.8% | 0% | 2.2% | 78.7% | 16.5% | 4.8% | 94.5% | 5.5% | 6.0% | 93.8% | 0.2% | 15.2% | 2.0% | SOA [8]: 94.2%; SheptaA [8]: 5.8%; ShexaA [8]: 0%; SOA [7]: 82.8%
18 | CCCCCC [hexane] | 3.5 | 5.8% | 0.6% | 5.7% | 8.6% | 79.3% |  |  |  |  |  |  |  |  |  |  |  |  |  | 
19 | CCCCCCC [heptane] | 4.0 | 6.6% | 0.5% | 4.4% | 8.9% | 79.6% |  |  |  |  |  |  |  |  |  |  |  |  |  | 
